The target of experiment [1] is T1, Short transient receptor potential channel 4 (Mus musculus, UniProt Q9QUQ5).
T1 sequence (Q9QUQ5 whole entry): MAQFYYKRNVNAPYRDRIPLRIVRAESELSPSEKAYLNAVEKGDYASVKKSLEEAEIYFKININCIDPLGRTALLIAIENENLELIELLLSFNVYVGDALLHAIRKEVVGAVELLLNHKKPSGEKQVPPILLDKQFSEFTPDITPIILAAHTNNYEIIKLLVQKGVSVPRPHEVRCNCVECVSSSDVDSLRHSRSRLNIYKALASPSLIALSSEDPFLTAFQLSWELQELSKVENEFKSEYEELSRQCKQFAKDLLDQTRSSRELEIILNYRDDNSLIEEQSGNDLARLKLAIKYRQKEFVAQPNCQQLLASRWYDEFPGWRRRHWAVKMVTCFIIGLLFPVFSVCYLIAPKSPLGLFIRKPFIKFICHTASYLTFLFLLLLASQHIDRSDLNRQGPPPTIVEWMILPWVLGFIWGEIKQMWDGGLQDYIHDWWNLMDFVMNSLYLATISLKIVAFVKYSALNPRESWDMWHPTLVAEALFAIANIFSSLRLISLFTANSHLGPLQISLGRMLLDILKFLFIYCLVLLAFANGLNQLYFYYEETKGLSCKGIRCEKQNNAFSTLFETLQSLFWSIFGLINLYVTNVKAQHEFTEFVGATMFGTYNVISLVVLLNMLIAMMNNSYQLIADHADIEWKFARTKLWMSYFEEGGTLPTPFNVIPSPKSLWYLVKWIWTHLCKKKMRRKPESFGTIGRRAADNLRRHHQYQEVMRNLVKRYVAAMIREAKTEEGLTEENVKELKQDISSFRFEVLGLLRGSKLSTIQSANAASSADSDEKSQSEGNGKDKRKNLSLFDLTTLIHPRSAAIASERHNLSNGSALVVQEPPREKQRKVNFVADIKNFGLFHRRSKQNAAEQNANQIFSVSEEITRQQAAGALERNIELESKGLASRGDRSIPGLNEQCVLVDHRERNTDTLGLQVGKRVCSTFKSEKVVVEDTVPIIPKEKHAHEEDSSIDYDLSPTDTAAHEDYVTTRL
The experiment can be described thus: block of DAMGO-driven TRPC4 calcium entry – cell-based, HEK293 TRPC4/mu-opioid, Fluo-4 calcium, dose response (AID 434942).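 Note: potency of inhibitors blocking the TRPC4 calcium response.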 In kind it is functional.

The nature of experiment [2]: Luminescence Cell-Based Dose Confirmation HTS to Identify Inhibitors of Platelet Dense Granule Release. [Related pubchem assays: 1663 (Primary HTS), 1678 (Summary of Project)]. The experiment is classed as functional.
In experiment [3] the target is Luciferin 4-monooxygenase (Photinus pyralis, UniProt P08659). The experiment can be described thus: inhibition of purified Photinus pyralis luciferase – biochemical, luminescence, dose response (AID 1891).
Chain of Luciferin 4-monooxygenase (P08659 whole entry): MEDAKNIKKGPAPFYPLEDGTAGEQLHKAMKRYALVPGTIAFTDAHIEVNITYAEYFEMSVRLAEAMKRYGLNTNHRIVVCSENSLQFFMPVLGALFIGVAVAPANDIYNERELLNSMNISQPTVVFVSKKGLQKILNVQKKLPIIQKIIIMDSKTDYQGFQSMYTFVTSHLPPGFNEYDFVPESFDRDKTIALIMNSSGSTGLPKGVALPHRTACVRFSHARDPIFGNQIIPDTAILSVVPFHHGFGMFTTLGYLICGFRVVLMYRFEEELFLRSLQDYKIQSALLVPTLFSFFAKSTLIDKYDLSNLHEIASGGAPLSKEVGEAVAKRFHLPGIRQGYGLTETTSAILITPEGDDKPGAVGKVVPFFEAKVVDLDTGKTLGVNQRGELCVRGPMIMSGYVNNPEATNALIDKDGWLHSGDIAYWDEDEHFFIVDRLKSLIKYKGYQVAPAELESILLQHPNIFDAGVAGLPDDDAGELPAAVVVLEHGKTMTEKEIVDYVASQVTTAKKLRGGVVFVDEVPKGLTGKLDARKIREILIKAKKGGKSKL
Experiment [4] in a line: P. falciparum Dd2 growth inhibitors, dose response, SYBR Green, cherry-picked samples (AID 1159567). The experiment is classed as functional, cell-based.
Experiment [5] relates to Streptococcus sp. 'group A'. The experiment in a line: Streptococcus pyogenes SK(-)GAS viability under kanamycin – luminescence, BacTiterGlo, confirmation, counter-screen for streptokinase expression inhibitor project, dose response (AID 1900). In kind it is functional, organism-based. Background: Counterscreens check selectivity or assay interference.
Experiment [6] deals with T2, Corticotropin-releasing factor receptor 2/Corticotropin-releasing factor-binding protein (Homo sapiens, UniProt P24387+Q13324).
T2 sequence (Q13324 whole entry): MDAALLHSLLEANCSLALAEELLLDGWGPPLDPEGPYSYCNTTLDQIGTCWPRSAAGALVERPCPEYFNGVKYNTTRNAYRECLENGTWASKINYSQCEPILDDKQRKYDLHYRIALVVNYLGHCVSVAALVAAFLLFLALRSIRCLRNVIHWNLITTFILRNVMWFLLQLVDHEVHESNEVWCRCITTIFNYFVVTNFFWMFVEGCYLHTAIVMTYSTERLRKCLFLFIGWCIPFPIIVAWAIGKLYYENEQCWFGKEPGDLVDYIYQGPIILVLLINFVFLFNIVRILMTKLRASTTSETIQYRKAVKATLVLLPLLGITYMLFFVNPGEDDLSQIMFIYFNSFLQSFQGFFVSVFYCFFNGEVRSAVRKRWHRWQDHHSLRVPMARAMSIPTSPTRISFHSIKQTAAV
T2 sequence (P24387 whole entry): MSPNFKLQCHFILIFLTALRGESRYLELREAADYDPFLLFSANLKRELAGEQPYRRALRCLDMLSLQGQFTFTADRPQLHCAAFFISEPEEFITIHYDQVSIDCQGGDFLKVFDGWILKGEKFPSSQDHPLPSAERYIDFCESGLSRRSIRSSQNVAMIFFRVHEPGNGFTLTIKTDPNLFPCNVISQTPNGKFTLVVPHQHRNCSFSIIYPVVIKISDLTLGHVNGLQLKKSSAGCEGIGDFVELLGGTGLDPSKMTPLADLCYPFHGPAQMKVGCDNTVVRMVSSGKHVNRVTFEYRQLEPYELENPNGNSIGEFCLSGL
The experiment can be described thus: Dose Response confirmation of uHTS hits for small molecule antagonists of the CRF-binding protein and CRF-R2 receptor complex. The experiment is classed as functional. To be noted: read-out: IC50_Mean.

A further experiment deals with Streptococcus. The experiment in a line: GAS UMAA2166 growth inhibition – luminescence, BacTiterGlo, counter-screen for streptokinase expression inhibitor project, dose response (AID 1915).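 Note: potency for reduction of bacterial viability or growth.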 In kind it is functional, organism-based.
The target of a further experiment is T3, Streptokinase A (Streptococcus pyogenes serotype M1, UniProt P10520).
T3 sequence (P10520 whole entry): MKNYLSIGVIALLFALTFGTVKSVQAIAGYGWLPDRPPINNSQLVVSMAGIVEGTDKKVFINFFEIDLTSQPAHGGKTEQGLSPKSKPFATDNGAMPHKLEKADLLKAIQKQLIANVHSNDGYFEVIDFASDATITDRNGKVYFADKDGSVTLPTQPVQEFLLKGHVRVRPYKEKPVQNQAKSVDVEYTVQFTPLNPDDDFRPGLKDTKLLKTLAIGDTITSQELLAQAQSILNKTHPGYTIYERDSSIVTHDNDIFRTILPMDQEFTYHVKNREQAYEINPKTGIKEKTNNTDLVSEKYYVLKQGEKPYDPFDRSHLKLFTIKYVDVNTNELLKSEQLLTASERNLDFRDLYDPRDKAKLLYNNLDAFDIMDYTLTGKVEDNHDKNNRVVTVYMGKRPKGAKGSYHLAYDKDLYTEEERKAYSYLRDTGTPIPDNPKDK
The experiment in a line: viability-normalized secreted streptokinase activity reduction – plasminogen activation absorbance, OD405, dose response (AID 1914).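 Note: secreted streptokinase activity via plasminogen activation per viability signal from cell pellet.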 In kind it is functional, Streptococcus pyogenes M1 GAS.

The target in experiment [7] is T2, Corticotropin-releasing factor receptor 2/Corticotropin-releasing factor-binding protein. The experiment in a line: activators of CRF receptor 2 with binding protein – uHTS hits, confirmation (AID 602473). The experiment is classed as functional. To be noted: read-out: EC50_Mean.
A further experiment concerns the target Cytochrome P450 2C19 (Homo sapiens, UniProt P33261). The experiment can be described thus: Cytochrome panel assay with activity outcomes. Panel member name: p450-cyp2c19 Compounds with AC50 equal or less than 10 uM are considered active. The experiment is classed as functional. To be noted: read-out: AC50.
The target of a further experiment is Cytochrome P450 3A4 (Homo sapiens, UniProt P08684).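 Note: CYP3A4 tested as one member of a cytochrome P450 panel screen.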
Chain of Cytochrome P450 3A4 (P08684 whole entry): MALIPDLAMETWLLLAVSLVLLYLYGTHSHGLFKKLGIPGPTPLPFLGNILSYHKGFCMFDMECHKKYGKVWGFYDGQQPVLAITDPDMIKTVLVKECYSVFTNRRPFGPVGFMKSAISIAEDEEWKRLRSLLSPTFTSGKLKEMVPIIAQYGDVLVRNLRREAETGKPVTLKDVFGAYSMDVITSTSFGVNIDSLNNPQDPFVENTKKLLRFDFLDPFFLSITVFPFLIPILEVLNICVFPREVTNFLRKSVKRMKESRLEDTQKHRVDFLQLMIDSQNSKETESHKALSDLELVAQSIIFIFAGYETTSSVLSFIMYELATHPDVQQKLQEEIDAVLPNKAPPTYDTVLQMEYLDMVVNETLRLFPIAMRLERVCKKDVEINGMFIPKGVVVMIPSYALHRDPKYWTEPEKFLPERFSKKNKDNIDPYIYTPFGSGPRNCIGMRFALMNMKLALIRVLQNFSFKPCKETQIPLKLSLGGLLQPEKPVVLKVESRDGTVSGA
For the next experiment, the target named is Cytochrome P450 2C9 (Homo sapiens, UniProt P11712).
Chain of Cytochrome P450 2C9 (P11712 whole entry): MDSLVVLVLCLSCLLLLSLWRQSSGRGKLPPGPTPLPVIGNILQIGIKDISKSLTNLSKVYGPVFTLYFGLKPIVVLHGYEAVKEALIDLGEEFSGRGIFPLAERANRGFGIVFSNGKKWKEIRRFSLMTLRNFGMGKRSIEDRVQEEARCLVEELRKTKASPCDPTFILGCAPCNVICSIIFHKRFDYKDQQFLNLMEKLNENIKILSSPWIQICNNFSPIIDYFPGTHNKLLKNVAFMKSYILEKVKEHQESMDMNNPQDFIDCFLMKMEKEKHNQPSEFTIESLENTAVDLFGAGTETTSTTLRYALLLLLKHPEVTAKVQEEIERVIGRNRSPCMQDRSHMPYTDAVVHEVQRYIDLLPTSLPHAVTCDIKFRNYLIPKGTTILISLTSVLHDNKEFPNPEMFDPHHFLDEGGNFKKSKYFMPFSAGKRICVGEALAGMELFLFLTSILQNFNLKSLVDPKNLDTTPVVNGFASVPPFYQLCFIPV
The nature of experiment [8]: alpha-synuclein stem-loop luciferase translation blockers – H4 neuroglioma cells, luminescence, confirmation (AID 1988). In kind it is functional, cell-based.
A short description of experiment [9]: Luminescence Cell-Based Dose Retest to Confirm Inhibitors of Cancer Stem Cells. [Related pubchem assays (depositor defined):AID2717, AID2721]. In kind it is functional. Particulars: Homo sapiens.

The structures appear in SMILES notation. The source made the active and inactive calls.

Consider 34 molecules from ChEMBL document CHEMBL1201862, “PubChem BioAssay data set” (2004).

Chain of Cytochrome P450 2C19 (P33261 whole entry): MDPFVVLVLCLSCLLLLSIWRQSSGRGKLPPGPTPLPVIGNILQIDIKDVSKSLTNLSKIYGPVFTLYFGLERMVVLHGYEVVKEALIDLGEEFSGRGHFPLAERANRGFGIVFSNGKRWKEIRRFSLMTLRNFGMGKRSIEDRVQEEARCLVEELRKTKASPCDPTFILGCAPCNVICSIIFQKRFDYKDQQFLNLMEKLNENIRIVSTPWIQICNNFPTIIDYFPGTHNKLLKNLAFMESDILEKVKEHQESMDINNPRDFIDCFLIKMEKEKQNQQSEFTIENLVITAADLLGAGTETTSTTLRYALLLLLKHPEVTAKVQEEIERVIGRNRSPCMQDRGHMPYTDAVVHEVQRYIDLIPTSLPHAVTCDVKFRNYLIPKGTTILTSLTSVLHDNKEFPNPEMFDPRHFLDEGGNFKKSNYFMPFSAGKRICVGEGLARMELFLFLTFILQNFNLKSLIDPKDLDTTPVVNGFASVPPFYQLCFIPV

With `Cc1cc(C)c(S(=O)(=O)c2ccccc2C)c(OCC(C)(C)C)n1`, the EC50 in [1] is 2.37 µM (active). In the case of `CCCCN(Cc1ccccc1)C(=O)C1CCN(Cc2sccc2C)CC1`, in [1], the EC50 was 2.99 µM (active). Take `O=C(CN1C(=O)c2cccc3cccc1c23)N1CCN(c2cccc(Cl)c2)CC1`: the EC50 in experiment [2] and in experiment [3] was > 112 µM (not active) throughout.

Turning to `CSc1nc(N2CCOCC2)c2c3c(sc2n1)CCCC3`, the EC50 in experiment [1] was 4.73 µM (active). Take `CCn1nnc(NC(=O)c2cccnc2)n1`: the EC50 in experiment [2] and in experiment [3] was > 112 µM (not active) each time. As for `Cc1ccc(NC(=O)CSCC(=O)OCc2cc(=O)oc3cc(O)ccc23)c(C)c1`, in [1], the EC50 was 5.96 µM (active). On to `CCCCn1c(SCC(=O)OCC)nc2c(sc(=S)n2-c2ccccc2OC)c1=O`, for which, in experiment [1], the EC50 is 1.68 µM (active). Consider `CCOc1ccc(N/C=C/C(=O)c2ccc(OC)cc2)cc1`, for which the EC50 in [2] and in experiment [3] was > 112 µM (not active) in each case. Turning to `COc1cc(CN2CC3(CCN(C(=O)c4cccnc4)CC3)c3c([nH]c4cc(OC)ccc34)[C@@H]2CO)cc(OC)c1`, in experiment [4], the half-maximal activity concentration (AC50) (in general, the midpoint of the concentration-response curve, whichever way the signal moves) is 5.84 µM (active). Consider `CCc1ccccc1NC(=O)NC(C)c1ccc2c(c1)OCO2` (configuration not stated), for which the EC50 in [5] is > 150 µM (not active); in the experiment with Streptococcus, > 150 µM (not active); on Streptokinase A it was > 150 µM (not active); in [7], > 53 µM (inactive). Besides, the IC50 in experiment [6] was > 47.1 µM (inactive). For the molecule `OC[C@H]1CC[C@@H]2O[C@H](CCc3ccc(C#CCc4ccccc4)cc3)[C@@H](n3cc(-c4ccccc4)nn3)C[C@@H]2O1`, in [4], the AC50 is 6.17 µM (active).

`COc1ccc(C)cc1N(C(=O)c1snc(C(N)=O)c1N)C(C(=O)NC1CCCC1)c1ccc(F)cc1` (configuration not stated): the EC50 in experiment [1] was 1.33 µM (active). Turning to `O=C(Cn1c(NCCCO)nc2ccccc21)c1ccc(Br)cc1`, the EC50 in experiment [1] was 2.99 µM (active). Regarding `CC(=O)Nc1ccc(OC(=O)N(C)c2ccccc2)cc1`, the EC50 in experiment [2] is 18.8 µM (active); in experiment [3], > 112 µM (not active). As for `COc1cccc(C(=O)Nc2ccc3c(c2)C(=O)N(C)C[C@@H](OC)[C@H](C)CN(CCc2ccccc2)[C@H](C)CO3)c1`, the AC50 in experiment [4] was 4.35 µM (active). As to `CO[C@@H]1CN(C)C(=O)c2cc(NC(=O)NC3CCCCC3)ccc2OC[C@@H](C)N(CCc2ccccc2)C[C@H]1C`, the AC50 in experiment [4] is 5.84 µM (active). In the case of `CCOC(=O)c1cc(=O)cc(C(=O)OCC)o1`, the IC50 in experiment [6] was > 47.1 µM (inactive). Further, the EC50 in [7] was > 53 µM (inactive). Take `CC(C)CC(=O)Nc1cccc(NC(=O)c2ccccc2Cl)c1`: the EC50 is 2.39 µM (active) in [2] and > 112 µM (not active) in [3]. In the case of `Nc1ccc(N=Nc2ccccc2)cc1[N+](=O)[O-]`, the IC50 in experiment [6] is > 47.1 µM (inactive). Besides, the EC50 in [7] was > 53 µM (inactive). On to `Nc1c2c(nc3c1CCCC3)CCCC2.O=C(O)c1ccnc(O)c1`, for which, in experiment [1], the EC50 is 2.99 µM (active). Take `O=c1cc(CN2CCN(Cc3ccccc3)CC2)c2cc(O)ccc2o1`: the IC50 in experiment [6] is > 47.1 µM (inactive). Further, in experiment [7], the EC50 is > 53 µM (inactive). In the case of `Cc1ccc(NC(=O)CN2CCc3ccccc3C2)cc1S(=O)(=O)N1CCOCC1`, the EC50 in experiment [1] was 3.76 µM (active). `C=CCOc1ccc(C2CC(C)=NN2c2ccccc2)cc1` (configuration not stated): the EC50 in experiment [1] is 4.22 µM (active).

Consider `Nc1nc(Nc2ccccc2)nc2c1ncn2[C@@H]1O[C@H](CO)[C@@H](O)[C@H]1O`, for which the EC50 in experiment [2] is 0.224 µM (active); in experiment [3], > 112 µM (not active). `COc1ccc(CN2CC3(CN(C(C)=O)C3)c3c([nH]c4cc(OC)ccc34)[C@@H]2CO)cc1`: the AC50 in experiment [4] was 9.9 µM (active). With `O=C(CCc1ccccc1)Nc1nncs1`, the AC50 at Cytochrome P450 2C19 was 39.8 µM (inconclusive); at Cytochrome P450 3A4 it was 12.6 µM (inconclusive); on Cytochrome P450 2C9, 31.6 µM (inconclusive). For the same molecule, the EC50 in experiment [2] and in experiment [3] was > 112 µM (not active) in each case. With `CCOC(=O)CSc1nc2c(sc(=S)n2Cc2ccco2)c(=O)n1-c1ccccc1`, the EC50 in [1] is 2.37 µM (active).

Consider `Clc1ccc(/C=C/c2nc3ccccc3[nH]2)cc1`, for which the EC50 is 9.68 µM (inconclusive) in [8], 1.05 µM (active) in experiment [2] and 0.545 µM (active) in [3]. In addition, in experiment [9], the AC50 was 2.34 µM (active).

On to `Cn1c(=O)n(Cc2ccccc2Cl)c2ccccc21`, for which, in experiment [6], the IC50 is > 47.1 µM (inactive). Besides, the EC50 in [7] is > 53 µM (inactive).

As to `Cc1ccccc1OCCC(=O)N1CCN(S(=O)(=O)c2ccccc2F)CC1`, the EC50 in experiment [2] and in experiment [3] was > 112 µM (not active) in each case. As for `COc1ccc(CNC(=O)CN(C)Cc2ccccc2F)cc1OC`, the EC50 in experiment [1] was 8.41 µM (active). On to `CN1c2ccc(C#Cc3cccnc3)cc2[C@H]2[C@H](CCN2C(=O)C2CCCC2)[C@H]1CO`, for which the AC50 in experiment [4] was 4 µM (active). As for `N#Cc1ccc(-c2ccc([C@@H]3[C@@H](CO)N4C(=O)CN(C(=O)C5CCC5)C[C@@H]34)cc2)cc1`, the AC50 in [4] was 5.38 µM (active).

For `CS(=O)(=O)Nc1nc2n(n1)C(c1ccccc1)CC(c1ccccc1)N2` (configuration not stated), the IC50 in [6] was > 47.1 µM (inactive). Besides, the EC50 in experiment [7] was > 53 µM (inactive).
